# Reference: ChEMBL document CHEMBL3507680, “University of Dundee, Gates Library screen for HepG2 cell viability”
# Test: Human HepG2 cell viability assay in 384 well format
# Assay type: toxicity, cell-based
# Design: dose 125 nL, time 70.5 hour; cytotoxicity at 70.5 h: concentration not given beside the values
# Settings: HepG2 cells, read-out: Inhibition
row,SMILES,cytotoxicity at 70.5 h [%]
1,CCc1cc(NCCNC(C)=O)nc(N2CCOCC2)n1,-13.2
2,CCCn1nnnc1CN(CC)CC1COc2ccccc2O1 (stereo unspecified),2.13
3,Cc1cc(C)n(Cc2ccc(C(=O)NCCN3CCOCC3)cc2)n1,1.27
4,CC1CCN(C(=O)C(C)N2CCc3[nH]nc(C(F)(F)F)c3C2)CC1 (stereo unspecified),-8.79
5,Cc1ccn(CCC(=O)N2CCCC(Cc3cccnc3)C2)n1 (stereo unspecified),-5.66
6,COCc1nc(CNc2cccc(-c3ncon3)c2)cs1,29.2
7,Cc1cncc(C(=O)N2CCC3(CCCN(c4nncs4)C3)C2)c1 (stereo unspecified),-3.85
8,CC(C(=O)NCc1ccc(N2CCNC(=O)C2)cc1)c1cccs1 (stereo unspecified),-4.67
9,COCC(=O)N1CC(c2ccnc(Nc3ccc(C)cn3)n2)C1,-10.9
10,Cc1nn(C)c(C)c1CC(=O)N1CCCC1Cn1cccn1 (stereo unspecified),-5
11,CCc1nc(-c2ccnc(N3CCNCC3)n2)no1,-2.35
12,O=C1CN(C(=O)CC2C(=O)NCCN2CC2CCCCC2)CCN1 (stereo unspecified),28.9
13,Fc1ccc(CN2CCCC2Cn2cncn2)c2ncccc12 (stereo unspecified),2.94
14,Cc1nccn1-c1cc(CNC(=O)CCNC(=O)OC(C)(C)C)ccn1,-7.58
15,Cc1ccc(C(=O)NCCNc2ncccc2C#N)c(=O)[nH]1,20.6
16,COCCn1ccnc1C1CCCN(C(=O)c2cccnc2SC)C1 (stereo unspecified),13
17,Cc1nc(S(=O)(=O)NCCC(=O)NCc2ccsc2)cn1C,-6.68
18,Cc1noc(C)c1CNc1cc(N2CCCC2CO)ncn1 (stereo unspecified),-5.89
19,Cc1nnc2ccc(N3CCN(Cc4nccn4C)CC3)nn12,5.33
20,CC(C)(C)Oc1ccc(C(=O)N2CCOCC2c2ncon2)cc1 (stereo unspecified),-0.751
21,CCc1cc(N2CCC(NCCc3nc(C)c(C)s3)CC2)nc(C)n1,-12.2

row,SMILES,cytotoxicity at 70.5 h [%]
1,COc1cccc(CN(C(=O)Nc2nncs2)C2CCC(O)CC2)c1 (stereo unspecified),0.476
2,Cc1c(C(=O)N2CCCN(S(C)(=O)=O)CC2)cnn1C,-3.33
3,O=C(c1ccc(F)cc1)N1C[C@@H]2CCN(c3cccnc3)C[C@@H]2C1,-11.2
4,Cc1nccn1CCC1CCCCN1Cc1ccncc1 (stereo unspecified),3.75
5,Cc1nn(C)c(N2CCOCC2)c1CNC1CCN(C(C)(C)C)CC1,1.66
6,COc1ccc(C2CCCN2Cc2cnn(C)c2)cc1 (stereo unspecified),-9.31
7,Cc1nn2c(N3CCCC(C(N)=O)C3)cc(-c3ccccc3)nc2c1C (stereo unspecified),-3.49
8,CC1COc2ccccc2N1C(=O)CCc1cscn1 (stereo unspecified),3.54
9,CCOC(=O)[C@]12CCCN(Cc3cccs3)C[C@H]1CN(CCOC)C2,1.08
10,COCCN1CCC(CNC(=O)c2ccnc(-n3ccnc3)c2)CC1,-0.309
11,Cc1nccc(N[C@H]2CN(C(=O)CN3CCOCC3)C[C@@H]2C(C)C)n1,-1.67
12,CCS(=O)(=O)CC(=O)NC(c1ccccc1)C1CCCC1 (stereo unspecified),0.476
13,CC(C)(C)c1n[nH]c(C2CN(C(=O)CCc3cccs3)CCO2)n1 (stereo unspecified),-8.77
14,CN(C)CCOCC1CN(Cc2cccc(F)c2)Cc2nccn2C1 (stereo unspecified),-4.81
15,Cc1cc(C(=O)N2CCCC(c3ccc(C(=O)O)cc3)C2)c(C)o1 (stereo unspecified),-17.2
16,CC(C1CC1)N(CC(=O)NCC(F)(F)F)C1CC1 (stereo unspecified),13.2
17,Cc1nc(CN2CCN(Cc3ccoc3)Cc3cccnc32)cs1,32.4
18,Cc1cccc(S(=O)(=O)NCC(C)(C)CC(C)O)c1C#N (stereo unspecified),-6.31
19,CCCn1ncc(CN2CCCC(C(=O)c3ccc(Cl)cc3C)C2)c1C (stereo unspecified),-7.11
20,CCN(C(=O)c1ccc2c(c1)OCO2)C1CC(=O)NC1=O (stereo unspecified),-6.4
21,CCCn1c(NC(=O)CNC(=O)OCC)nc2ccccc21,-8.2

row,SMILES,cytotoxicity at 70.5 h [%]
1,CC(C)CNC(=O)c1cc(C2CC2)nc2onc(C3CCNCC3)c12,-3.04
2,CCn1cc(S(=O)(=O)N2CCCSc3ccccc32)cn1,-7.44
3,COCc1cc(NCC(F)(F)F)n2nccc2n1,-12.3
4,CC(C)(C)NC(=O)Cn1nc(C2CC2)cc(C(F)(F)F)c1=O,-1.18
5,Cc1cnc(N2CCC3(CC2)CC(NC(=O)C(C)C)CO3)nc1 (stereo unspecified),11.3
6,CN(C)C(=O)N1C[C@@H]2CC[C@H](C1)N(Cc1nnc(-c3ccco3)o1)C2,10.9
7,COCCN(CCC#N)S(=O)(=O)c1cc(F)cc(F)c1,3.86
8,O=C(CN1CCC2(CC1)NC(=O)c1cc(Br)ccc1N2)NC1CC1,-1.52
9,Cc1ccccc1OCCCNC(=O)C1(C)CC(=O)N2C=CC=CC2=N1 (stereo unspecified),0.923
10,COc1cc(C(=O)N2CCC(O)(CN3CCOCC3)C(C)(C)C2)ccn1 (stereo unspecified),-0.646
11,CC(CN1CCOCC1)NC(=O)NCCc1ccc(Cl)s1 (stereo unspecified),-6.3
12,CCS(=O)(=O)c1ccccc1N1CCC(N)CC1,-3.9
13,Cc1noc(C)c1CN(C)CC(=O)/N=c1\cc[nH]n1C(C)C1CC1 (stereo unspecified),22.1
14,O=C1N(CC2CC2)CCC12CCN(Cc1ccoc1)CC2,-8.87
15,CC(=O)c1cccc(NC(=O)NCCc2nnc[nH]2)c1,-10.6
16,CC(=O)N1CCO[C@@H]2CN(C(=O)c3cc(C)oc3C)CC[C@@H]2C1,13
17,O=C(NCCO)C1(CC2CC(c3ccc(F)cc3)=NO2)CCOCC1 (stereo unspecified),14.1
18,Cc1cnn(CC2CN(CC(=O)N(C)Cc3ccsc3)CCO2)c1 (stereo unspecified),5.76
19,COc1ccc(NC(C)C(=O)N2CCN(c3ccccc3)CC2)cn1 (stereo unspecified),-3.71
20,CCCN1CCC(N(C)C(=O)c2cc(C)nc3cc(F)ccc23)CC1,-11.9
21,CC(C)(C(=O)NCC1CCN(Cc2ccccn2)C1)c1ccccc1 (stereo unspecified),18.1

row,SMILES,cytotoxicity at 70.5 h [%]
1,COc1ccc2c(c1)CC(C(=O)N(C)Cc1noc3c1CCCC3)CO2 (stereo unspecified),-4.86
2,CCOCC1CN(CCN(C)C)Cc2cnn(CC3CCCC3)c21 (stereo unspecified),4.97
3,Cc1ccc(CNC(=O)C2CCCCN2C(=O)OC(C)(C)C)cn1 (stereo unspecified),-3.38
4,CCOCc1cnc2n1CCN(C(=O)Cc1cccs1)C2C (stereo unspecified),-7.5
5,COc1cc(OC)cc(N2CCC(NC(=O)c3ccc[nH]3)CC2)c1,-7.63
6,COc1ncccc1CNC(=O)c1csc(Br)c1,-8.18
7,COC(=O)c1cc(OC)c(OC)cc1NCc1c(C)noc1C,-2.42
8,Cc1cnn(C2CCCN(C(=O)c3cccc(Cn4ccnc4)c3)C2)c1 (stereo unspecified),20.1
9,CCOC(=O)N[C@H]1C[C@@H](C(=O)NCc2cccc(Cl)c2)N(C)C1,-20.9
10,Cc1nn(C)c(C)c1NC(=O)c1cccc(CN2CCS(=O)(=O)CC2)c1,-6.09
11,CCc1ccc(C2COCCN2C(=O)Nc2ccc(C#N)cc2)o1 (stereo unspecified),47.1
12,Cc1nsc(N2CCCN(C(=O)CCc3ccsc3)CC2)n1,-2
13,Cc1cccc(C(=O)N(CC(=O)O)CC(C)C)c1,11.7
14,c1ccc(OCCN2CCC(c3nnc(-c4cccnc4)o3)CC2)cc1,-2.58
15,Cn1ccnc1NC[C@@H]1CCC[C@@H]2CN(Cc3nccs3)C[C@@H]21,-0.236
16,CN(C)S(=O)(=O)N1CCN(C(=O)c2ccc3ccn(C)c3c2)CC1,-7.35
17,O=C(CSC1=NS(=O)(=O)c2cc(F)ccc2N1)c1ccccc1,-3.16
18,Cc1cc2n(n1)CC(CNCc1cnn(-c3ccccc3)c1)CN2 (stereo unspecified),-3.87
